The record followed here is patent publication US20070020140A1, “Decontamination of biological microbes using metal cations suspended in ethanol” (priority 2005, published 2007).

Assay [1] has as its system Bacillus atrophaeus subspecies globigii spores. The assay can be described thus: Assay to quantify spore kills, dry-prepared Bg spores (section 2). The class given is cell-based. The note with it: 0.5 M, 15 minutes at 25° C., FIG. 4.
Assay [2] concerns Bacillus cereus spores. The assay can be described thus: Assay to quantify spore kills, wet-prepared Bc spores (section 2). The assay is classed as cell-based, B. cereus RSVF1, ATCC 4342. The note with it: FIG. 5.
Assay [3] has as its system B. atrophaeus subspecies globigii spores. The assay is classed as cell-based, Bacillus atrophaeus subspecies globigii. The note with it: 0.5 M in water. On the procedure:
Dry-prepared spores of non-pathogenic B. atrophaeus subspecies globigii (B. globigii or Bg) were prepared at the Army's Dugway Proving Ground to mimic a bio-weapon, and they are used for bio-weapons studies, including the following experiments. The assay for decontamination experiments was performed with 3-4 replicates and many experiments were reproduced numerous times. The assay included the steps of (1) suspending Bg spores in the appropriate solvent (water or ethanol) at a concentration of 2 mg spores/ml (approximately 2×10^8 spores/ml) with starting volume of over 1 ml of spores at 2 mg/ml; (2) removing 3 or 4 spore aliquots of 50 ul per aliquot with each aliquot serially diluted in 1x PBS and plated on Luria-Bertani (LB) or Tryptic Soy (TSA) agar plates (this is a control step that gave the spore titer or colony-forming units (CFUs) at Time=0 minutes (T0)); (3) placing the appropriate decontamination solution (2x concentration) aliquoted into each of 3 or 4 eppendorf tubes with 200 ul per tube and then 200 ul of spores were added and mixed to give a final concentration of 1x decontamination solution and 1 mg spores/ml; (4) the spores in decontamination solution were then mixed and incubated for specific time periods and temperatures. A typical incubation was in a room temperature (25° C.) water bath for 30 (or 60) minutes (no agitation was performed during the incubation period in order to mimic real world situations); (5) aliquots of spores from the 3 or 4 replicates were removed after 30 (or 60) minutes with the aliquots serially diluted in 1x PBS and plated on LB or TSA agar plates which gave a CFU at Time=30 minutes (T30) (the titer of live spores after the decontamination test); (6) after removing the aliquots at the 30-minute time point, some test samples were then immediately incubated in a 70° C. water bath for another 30 minutes, the samples were then serially diluted and plated on to LB agar plates to determine the titer after the 70° C. incubation.

Where [4] appears, read: 60 minutes at 25° C., ten out of the thirteen experiments.
[5] abbreviates: additional 30 minutes at 70° C., pH-neutralized to pH 7-8, all 11 experiments.
The mark [6] stands for this setting: 0.5 M in 50%, 75% and 90% ethanol, 15 minutes at 25° C.

A value given as a limit tells only on which side of the number the result lay.

Regarding `[Cl-].[Cl-].[Zn+2]` [Zn^+2, ZnCl2], in assay [1] (in 50% ethanol), the CFU reduction result is listed as “greater than two logs”. The “activity against Bc spores” value in assay [2] (0.5 M in 50% and 75% ethanol, 15 minutes at 25° C.) is recorded as “slight activity”.
Turning to `O.O.[Ca+2].[Cl-].[Cl-]` [Ca^+2, CaCl2-2H2O], the “effect on Bg spores” value in assay [1] (regardless of the solvent (water, 25-90% ethanol)) is “no affect”. Moreover, the “effect on Bc spores” value in assay [2] (0.5 M in water, 25%, 50%, 75% or 90% ethanol, 15 minutes at 25° C.) is on record as “no affect”.
As for `[Cl][Cu][Cl]` [Cu^+2, copper chloride], in assay [3] (setting [4]), the log spore kill is reported as above 1 log and the spore kills result is “greater than 92%”. In assay [3] (setting [5]), this compound registered a kill of spores of 100% and a logs of kill above 7 logs. Moreover, the “activity against Bg spores” value in assay [1] (in 50%, 75% and 90% ethanol) was “strongest activity”. Further, the “activity against Bc spores” value in assay [2] (setting [6]) is listed as “strong activity”.
For `O.O.O.O.O.O.[Cl-].[Cl-].[Cl-].[Fe+3]` [Fe^+3, FeCl3·6H2O], the CFU reduction result in assay [1] (in water and at any ethanol concentration) is on record as “greater than three logs”. Also, in assay [2] (setting [6]), the “CFU reduction (logs)” value is listed as “greater than three logs” and the “CFU reduction (percent)” value is above 99.9%. In addition, in assay [2] (0.5 M in water, within 15 minutes), the “CFU reduced relative to the control” value is “less than half a log”.
